# Assay results taken from patent publication US9717719B2, “Treatment, prevention, and reversal of alcohol-induced liver disease” (Rhode Island Hospital, priority 2006, dated 2017).
# “Also recorded” adds a separate entry of the source.
# How the values were obtained:
# Type in all cases: in vivo, rat
# [1] = system: Long-Evans male rats fed a 37% ethanol liquid diet; assay: Lipid peroxidation in liver by HNE immunostaining; conditions: chronic ethanol fed rats
# Protocol: (§1) An isocaloric (sucrose substituted for ethanol) diet was administered to pair fed control animals. After three weeks, both groups of rats were injected with either PPAR-α, γ, or δ agonists or saline as a control. […] The […] were given IP injections twice a week. At 6 weeks, the animals underwent 2/3 partial hepatectomy. The removed liver was used for histology, measurement of lipid peroxidation, DNA damage and insulin/IGF signaling as described below. Following ⅔ hepatectomy, the liver remnants were harvested 18, 24, 30 and 48 hours later to assess the regenerative response. To do this, animals were injected IP with BrdU 2 hours before harvest to measure its incorporation into hepatic nuclei as an index of DNA synthesis.
# (§2) Paraffin sections (8 μm thick) were immunostained with monoclonal antibodies to 8-hydroxy-deoxyguanosine (8-OHdG) (Oxis Research) or 4-hydroxynonenol (HNE) (Chemicon International, Temecula, Calif.), to detect DNA damage and lipid peroxidation, respectively. Prior to immunostaining, the deparaffinized, re-hydrated sections were treated with 0.1 mg/ml saponin in phosphate buffered saline (10 mM sodium phosphate, 0.9% NaCl, pH 7.4; PBS) for 20 minutes at room temperature, followed by 3% hydrogen peroxide in methanol for 10 minutes to quench endogenous peroxidase activity, and then a 30-minute incubation in SuperBlock-TBS (Pierce Chemical Co., Rockford, Ill.) to block non-specific binding sites. The tissue sections were then incubated overnight at 4° C. with 0.5-1 μg/ml of primary antibody. […] The tissue sections were counterstained with hematoxylin, preserved under coverglass, and examined by light microscopy.
# [2] = system: Long-Evans male rats fed a 37% ethanol liquid diet; assay: DNA damage in liver by 8-OHdG immunostaining; conditions: chronic ethanol fed rats
# Protocol: as §1, §2
# Long Evans rats = assay: Liver histology in the chronic ethanol exposure model; conditions: for extents of micro- and macrosteatosis / liver histology (hepatic architecture): ethanol-fed rats; for liver histology (hepatic architecture): relative to vehicle
# From the text: Chow fed control rats were also studied. Rats were monitored daily to ensure equivalent food consumption and maintenance of body weight. […] At the conclusion of the experiment, rats were anesthetized with vaporized isofluorane (SurgiVet, Inc. Waukesha, Wis.), and liver and blood were harvested for analysis. Liver tissue samples were immersion fixed in Histochoice (Amresco Corp., Solon, Ohio) and embedded in paraffin. Adjacent histological sections were stained with Hematoxylin and Eosin or Gomori's Trichrome and examined under code. In addition, liver tissue samples were snap-frozen in a dry ice methanol bath and then stored at −80° C. for later mRNA and protein studies. Throughout the experiment, rats were housed under humane conditions and kept on a 12-hour light/dark cycle with free access to food. All experiments were performed in accordance with protocols that conform to guidelines established by the National Institutes of Health and were approved by Institutional Animal Care and Use Committee at the Lifespan-Rhode Island Hospital.
# [3] = system: liver mRNA levels of albumin, ASBT, GFAP, KCR, desmin, and collagen; assay: Liver cell profiling by qRT-PCR; conditions: for GFAP mRNA / collagen mRNA / desmin mRNA / ASBT mRNA / albumin mRNA: relative to vehicle
# From the text: Adult male (˜200-250 g) Long Evans rats (Harlan Sprague Dawley, Inc., Indianapolis, Ind.) were pair-fed with isocaloric liquid diets (BioServ, Frenchtown, N.J.) containing 0% (control) or 37% ethanol by caloric content (9.2% v/v) for 8 weeks. During the week prior to initiating the experiment, rats were adapted to the ethanol-containing diets by sequentially feeding them for two days each with diets containing 8%, 17%, 24%, and then 37% ethanol. Chow fed control rats were also studied. Rats were monitored daily to ensure equivalent food consumption and maintenance of body weight. During the last 3 weeks of the experiment while being maintained on either the 0% or 37% ethanol-containing liquid diets, rats in both groups were administered twice weekly (Mondays and Thursdays) intra-peritoneal (i.p.) injections of vehicle (saline), a PPAR-α (GW7647; 25 μg/kg), PPAR δ (L-165,041; 2 μg/kg), or PPAR-γ (F-L-Leu; 20 μg/kg) agonist (CalBiochem, Carlsbad, Calif.). At the conclusion of the experiment, rats were anesthetized with vaporized isofluorane (SurgiVet, Inc. Waukesha, Wis.), and liver and blood were harvested for analysis. Liver tissue samples were immersion fixed in Histochoice (Amresco Corp., Solon, Ohio) and embedded in paraffin. Adjacent histological sections were stained with Hematoxylin and Eosin or Gomori's Trichrome and examined under code. In addition, liver tissue samples were snap-frozen in a dry ice methanol bath and then stored at −80° C. for later mRNA and protein studies. Throughout the experiment, rats were housed under humane conditions and kept on a 12-hour light/dark cycle with free access to food. All experiments were performed in accordance with protocols that conform to guidelines established by the National Institutes of Health and were approved by Institutional Animal Care and Use Committee at the Lifespan-Rhode Island Hospital.
# Total RNA was extracted from liver tissue using TRIzol® reagent (Invitrogen, Carlsbad, Calif.) according to the manufacturer's protocol. RNA concentrations and purity were determined from the absorbances measured at 260 nm and 280 nm. RNA (2 μg) was reverse transcribed using the AMV First Strand cDNA synthesis kit (Roche Diagnostics Corporation, Indianapolis, Ind.) and random oligodeoxynucleotide primers. Quantitative reverse transcriptase polymerase chain reaction (qRT-PCR) assays were used to measure steady-state levels of specific mRNA transcripts. PCR amplifications were performed in 20 μl reactions containing cDNA generated from 2.5 ng of original RNA template, 300 nM each of gene specific forward and reverse primer (Table 2), and 10 μl of 2× QuantiTect SYBR Green PCR Mix (Qiagen Inc, Valencia, Calif.). The amplified signals were detected continuously with the Mastercycler ep realplex instrument and software (Eppendorf AG, Hamburg, Germany). The amplification protocol used was as follows: initial 15-minutes denaturation and enzyme activation at 95° C., 45 cycles of 95° C.×15 sec, 55°-60° C.×30 sec, and 72° C.×30 sec. Annealing temperatures were optimized using the temperature gradient program provided with the Mastercycler ep realplex software.
# In preliminary studies, SYBR Green-labeled PCR products were evaluated by agarose gel electrophoresis, and authenticity was verified by nucleic acid sequencing. Complementary (c) DNAs were cloned into PCR-II vectors (Invitrogen, Carlsbad, Calif.). […] Serial dilutions of recombinant plasmid DNA containing target sequences were used as standards in PCR reactions, and regression lines generated from the Ct values of the standards were used to calculate mRNA abundance. Relative mRNA expression was expressed as the ng ratio of specific mRNA to ribosomal (r) 18S measured in the same samples because 18S is highly abundant and the levels are not modulated with disease state. Statistical comparisons were made using the calculated mRNA/18S ratios. […]
# [4] = control livers, relative to vehicle (not statistically significant)
# [5] = ethanol-exposed livers, relative to vehicle (statistically significant)
smiles,measurement,setting,value
"CC(C)(Sc1ccc(CCN(CCCCC2CCCCC2)C(=O)NC2CCCCC2)cc1)C(=O)O [PPAR-α, GW7647]",hepatic lipid peroxidation (HNE immunostaining),[1],substantially improved
same,DNA damage (8-OHdG immunoreactivity),[2],protective effect
same,liver histology,"Long Evans rats; control rats, relative to vehicle-treated controls",no detectable histological changes in liver; also recorded: no detectable effects on liver histology
same,extents of micro- and macrosteatosis,Long Evans rats,overtly reduced
same,liver histology (hepatic architecture),Long Evans rats,reduced the disordered architecture; also recorded: strikingly reduced the ethanol-associated architectural disarray and steatosis
same,KCR mRNA,[3]; [4],increased
same,GFAP mRNA,[3]; control rats,significantly increased
same,collagen mRNA,[3]; controls,increased
same,desmin mRNA,[3]; ethanol-exposed livers,no significant effect
same,KCR mRNA,[3]; [5],increased
same,GFAP mRNA,[3]; ethanol-exposed rats,significantly increased
same,ASBT mRNA,[3]; ethanol-fed rats,significantly increased; also recorded: normalized
same,albumin mRNA,[3]; ethanol-fed rats,significantly increased; also recorded: normalized
same,collagen mRNA,[3]; ethanol-fed rats,further increased
"CC(C)C[C@H](NC(=O)OCC1c2ccccc2-c2ccccc21)C(=O)O [PPAR-γ, F-L-Leu]",hepatic lipid peroxidation (HNE immunostaining),[1],substantially improved
same,DNA damage (8-OHdG immunoreactivity),[2],protective effect
same,extents of micro- and macrosteatosis,Long Evans rats,overtly reduced
same,liver histology (hepatic architecture),Long Evans rats,reduced the disordered architecture; also recorded: most striking improvements in liver histology; also recorded: strikingly reduced the ethanol-associated architectural disarray and steatosis; also recorded: more effective than the PPAR-α agonist in restoring hepatic architecture
same,desmin mRNA,[3]; control group,significantly reduced
same,ASBT mRNA,[3]; control livers,decreased
same,albumin mRNA,[3]; control livers,significantly increased
same,KCR mRNA,[3]; [4],increased
same,desmin mRNA,[3]; ethanol-exposed livers,significantly increased
same,KCR mRNA,[3]; [5],increased
same,GFAP mRNA,[3]; ethanol-exposed rats,significantly increased
same,ASBT mRNA,[3]; ethanol-fed rats,did not significantly alter
same,albumin mRNA,[3]; ethanol-fed rats,did not significantly alter
same,collagen mRNA,[3]; ethanol-fed rats,significantly reduced
"CCCc1c(OCCCOc2ccc(OCC(=O)O)cc2)ccc(C(C)=O)c1O [PPAR-δ, L-165,041]",hepatic lipid peroxidation (HNE immunostaining),[1],substantially improved
same,DNA damage (8-OHdG immunoreactivity),[2],most prominent protective effect; also recorded: superior to the α and γ agents in preventing hepatocyte damage
same,extents of micro- and macrosteatosis,Long Evans rats,overtly reduced
same,liver histology (hepatic architecture),Long Evans rats,reduced the disordered architecture; also recorded: most striking improvements in liver histology; also recorded: strikingly reduced the ethanol-associated architectural disarray and steatosis; also recorded: more effective than the PPAR-α agonist in restoring hepatic architecture
same,desmin mRNA,[3]; control group,significantly reduced
same,ASBT mRNA,[3]; control livers,decreased
same,albumin mRNA,[3]; control livers,significantly increased
same,KCR mRNA,[3]; [4],increased
same,collagen mRNA,[3]; controls,increased
same,desmin mRNA,[3]; ethanol-exposed livers,no significant effect
same,KCR mRNA,[3]; [5],increased
same,ASBT mRNA,[3]; ethanol-fed rats,did not significantly alter; also recorded: normalized
same,albumin mRNA,[3]; ethanol-fed rats,significantly increased; also recorded: normalized
same,collagen mRNA,[3]; ethanol-fed rats,significantly reduced
